Test results published in patent publication US11261192B2, “Substituted 1,2-dihydro-3H-pyrazolo[3,4-D]pyrimidin-3-ones” (Recurium IP Holdings, LLC, priority 2018, dated 2022).
Where two headings read alike, the source gives them in different places.

Tests used:
Wee1 kinase = Wee1 kinase (Homo sapiens, UniProt P30291); test: Wee1 Binding Assay (FRET)
Method: Wee 1 kinase was determined by using Fluorescence Resonance Energy Transfer (FRET) assay. […] The plate was shaken for 30 seconds, incubated for 60 min at RT, and recorded on fluorescence plate reader.

H23 cells = test: H23 Cellular Proliferation Assay (CellTiter-Glo); type: cell-based; conditions: Homo sapiens, NCI-H23, 96 h, 4 days, read-out: H23 CTG IC50
Method: H23 Cellular Proliferation Assay
Cells were treated with compounds diluted in DMSO and a 9 point 5-fold serial dilutions. Plates were placed in 37° C., 5% CO2 for to incubate for 4 days. Before they were developed by adding 100 μL of CellTiter-Glo reagent (Promega) to the assay plate, plates were shaken briefly for 2 mins and allowed to incubate at rt for 10 mins. The plates are read with a M5e plate reader according to CellTiter-Glo protocol. The GraphPad Prism software is used to get IC50 values.

[1] = FRET, Wee1 kinase 2 nM, tracer 178 50 nM, 60 min at RT, read-out: Wee1 enzymatic IC50

Sequence of Wee1 kinase (P30291 whole entry): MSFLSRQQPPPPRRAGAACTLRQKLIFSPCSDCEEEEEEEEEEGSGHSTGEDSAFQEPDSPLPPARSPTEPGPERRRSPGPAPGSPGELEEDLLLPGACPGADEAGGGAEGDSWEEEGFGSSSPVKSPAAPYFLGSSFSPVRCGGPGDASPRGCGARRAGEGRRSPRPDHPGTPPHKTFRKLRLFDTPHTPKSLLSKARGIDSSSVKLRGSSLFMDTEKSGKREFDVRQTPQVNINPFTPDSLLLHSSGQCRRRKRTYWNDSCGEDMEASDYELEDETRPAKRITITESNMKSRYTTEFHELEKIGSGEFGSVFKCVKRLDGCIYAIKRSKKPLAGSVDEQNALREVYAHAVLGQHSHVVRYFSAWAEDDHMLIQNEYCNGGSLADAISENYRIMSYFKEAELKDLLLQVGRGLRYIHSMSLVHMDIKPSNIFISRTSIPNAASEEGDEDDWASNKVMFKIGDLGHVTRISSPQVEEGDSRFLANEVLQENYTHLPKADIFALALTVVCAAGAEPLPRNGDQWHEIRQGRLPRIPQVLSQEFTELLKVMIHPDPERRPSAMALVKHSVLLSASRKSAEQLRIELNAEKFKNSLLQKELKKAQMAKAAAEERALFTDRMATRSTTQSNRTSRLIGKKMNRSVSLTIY

IC50 (Wee1 kinase; [1])	IC50 (Wee1 kinase)	SMILES	IC50 (H23 cells)
< 10 nM		C=CCn1c(=O)c2cnc(Nc3ccc(N4CCN(C)CC4)c(C)c3)nc2n1-c1ccc2c(n1)[C@](C)(O)CCC2 (single isomer, unassigned) [Example 27B]	100 to 1000 nM
	< 10 nM	C=CCn1c(=O)c2cnc(Nc3ccc(N4CCN(C)CC4)cc3)nc2n1-c1ccc2c(n1)[C@@](O)(CC)CC2 (single isomer, unassigned) [Example 9B]	100 to 1000 nM
10 to 100 nM		C=CCn1c(=O)c2cnc(Nc3ccc(N4CCN(C)CC4)cc3)nc2n1-c1cn2c(n1)COCC2 [Example 32, 2-allyl-1-(5,6-dihydro-8H-imidazo[2,1-c][1,4]oxazin-2-yl)-6-((4-(4-methylpiperazin-1-yl)phenyl)amino)-1,2-dihydro-3H-pyrazolo[3,4-d]pyrimidin-3-one]	> 1000 nM
	< 10 nM	C=CCn1c(=O)c2cnc(Nc3ccc(N4CCN(C)CC4)cc3)nc2n1-c1ccc2c(n1)[C@](C)(O)CO2 (single isomer, unassigned) [Example 4B]	> 1000 nM
	< 10 nM	C=CCn1c(=O)c2cnc(Nc3ccc(N4CCN(C)CC4)c(C)c3)nc2n1-c1ccc2c(n1)[C@@](C)(O)CC2 (single isomer, unassigned) [Example 10A]	100 to 1000 nM
	< 10 nM	C=CCn1c(=O)c2cnc(Nc3ccc(N4CCN(C)CC4)cc3)nc2n1-c1ccc2c(n1)[C@@](O)(C1CC1)CC2 (single isomer, unassigned) [Example 16B]	100 to 1000 nM
10 to 100 nM		C=CCn1c(=O)c2cnc(Nc3ccc(N4CCN(C)CC4)cc3)nc2n1-c1ccc2c(c1)[C@](O)(CC)CC2 (single isomer, unassigned) [Example 22A]	> 1000 nM
	< 10 nM	C=CCn1c(=O)c2cnc(Nc3ccc(N4CCN(C)CC4)cc3)nc2n1-c1ccc2c(n1)[C@@](O)(CC)CCC2 (single isomer, unassigned) [Example 26B]	< 100 nM
	< 10 nM	C=CCn1c(=O)c2cnc(Nc3ccc4c(c3)CNCC43CC3)nc2n1-c1ccc2c(n1)[C@](O)(C(F)(F)F)CC2 (single isomer, unassigned) [Example 30A]	100 to 1000 nM
10 to 100 nM		C=CCn1c(=O)c2cnc(Nc3ccc(N4CCN(C)CC4)cc3)nc2n1-c1ccc2c(n1)C(=O)N(C)C2 [Example 33, 2-allyl-1-(6-methyl-7-oxo-6,7-dihydro-5H-pyrrolo[3,4-b]pyridin-2-yl)-6-((4-(4-methylpiperazin-1-yl)phenyl)amino)-1,2-dihydro-3H-pyrazolo[3,4-d]pyrimidin-3-one]	> 1000 nM
< 10 nM		C=CCn1c(=O)c2cnc(Nc3ccc(N4CCN(C)CC4)c(F)c3)nc2n1-c1ccc2c(n1)[C@@](C)(O)CC2 (single isomer, unassigned) [Example 11A]	> 1000 nM
	< 10 nM	C=CCn1c(=O)c2cnc(Nc3ccc(N4CCN(C)CC4)cc3)nc2n1-c1ccc2c(n1)[C@@H](O)CC2 (single isomer, unassigned) [Example 1A]	> 1000 nM
	< 10 nM	C=CCn1c(=O)c2cnc(Nc3ccc(N4CCN(C)CC4)cc3)nc2n1-c1ccc2c(n1)[C@](O)(C(F)F)CC2 (single isomer, unassigned) [Example 15A]	> 1000 nM
10 to 100 nM		C=CCn1c(=O)c2cnc(Nc3ccc(N4CCN(C)CC4)cc3)nc2n1-c1cn2c(n1)[C@@](C)(O)CC2 (single isomer, unassigned) [Example 36A]	> 1000 nM
	< 10 nM	C=CCn1c(=O)c2cnc(Nc3ccc(N4CCN(C)CC4)cc3)nc2n1-c1ccc2c(n1)[C@@](O)(C(F)F)CC2 (single isomer, unassigned) [Example 15B]	100 to 1000 nM
	< 10 nM	C=CCn1c(=O)c2cnc(Nc3ccc(N4CCN(C)CC4)cc3)nc2n1-c1ccc2c(n1)[C@](O)(CC)CC2 (single isomer, unassigned) [Example 9A]	100 to 1000 nM

IC50 (Wee1 kinase; [1])	IC50 (Wee1 kinase)	SMILES	IC50 (H23 cells)
> 100 nM		C=CCn1c(=O)c2cnc(Nc3ccc(N4CCN(C)CC4)cc3)nc2n1-c1cn2c(n1)[C@](C)(O)CC2 (single isomer, unassigned) [Example 36B]	> 1000 nM
< 10 nM		C=CCn1c(=O)c2cnc(Nc3ccc(N4CCN(C)CC4)cc3)nc2n1-c1ccc2c(c1)[C@@](O)(CC)CC2 (single isomer, unassigned) [Example 22B]	100 to 1000 nM
< 10 nM		C=CCn1c(=O)c2cnc(Nc3ccc(N4CCN(C)CC4)c(C)c3)nc2n1-c1ccc2c(n1)[C@@](C)(O)CCC2 (single isomer, unassigned) [Example 27A]	100 to 1000 nM
< 10 nM		C=CCn1c(=O)c2cnc(Nc3ccc(N4CCN(C)CC4)c(F)c3)nc2n1-c1ccc2c(n1)[C@](C)(O)CC2 (single isomer, unassigned) [Example 11B]	100 to 1000 nM
	< 10 nM	C=CCn1c(=O)c2cnc(Nc3ccc(N4CCN(C)CC4)c(C)c3)nc2n1-c1ccc2c(n1)[C@](C)(O)CC2 (single isomer, unassigned) [Example 10B]	100 to 1000 nM
	< 10 nM	C=CCn1c(=O)c2cnc(Nc3ccc4c(c3)CNCC43CC3)nc2n1-c1ccc2c(n1)[C@@](O)(C(F)(F)F)CC2 (single isomer, unassigned) [Example 30B]	100 to 1000 nM
	< 10 nM	C=CCn1c(=O)c2cnc(Nc3ccc(N4CCN(C)CC4)cc3)nc2n1-c1ccc2c(n1)[C@@](C)(O)CO2 (single isomer, unassigned) [Example 4A]	> 1000 nM
	< 10 nM	C=CCn1c(=O)c2cnc(Nc3ccc(N4CCN(C)CC4)cc3)nc2n1-c1ccc2c(n1)[C@@](C)(O)CCC2 (single isomer, unassigned) [Example 25A]	100 to 1000 nM
< 10 nM		C=CCn1c(=O)c2cnc(Nc3ccc(N4CCNCC4)cc3)nc2n1-c1ccc2c(n1)C(F)(F)CC2 [Example 7, 2-Allyl-1-(7,7-difluoro-6,7-dihydro-5H-cyclopenta[b]pyridin-2-yl)-6-((4-(piperazin-1-yl)phenyl)amino)-1,2-dihydro-3H-pyrazolo[3,4-d]pyrimidin-3-one]	> 1000 nM
	< 10 nM	C=CCn1c(=O)c2cnc(Nc3ccc(N4CCN(C)CC4)cc3)nc2n1-c1ccc2c(n1)[C@](O)(CC)CCC2 (single isomer, unassigned) [Example 26A]	> 1000 nM
10 to 100 nM		C=CCn1c(=O)c2cnc(Nc3ccc(N4CCN(C)CC4)cc3)nc2n1-c1cnc2c(c1)[C@@](C)(O)CO2 (single isomer, unassigned) [Example 35A, 2-allyl-1-(3-hydroxy-3-methyl-2,3-dihydrofuro[2,3-b]pyridin-5-yl)-6-((4-(4-methylpiperazin-1-yl)phenyl)amino)-1,2-dihydro-3H-pyrazolo[3,4-d]pyrimidin-3-one]	> 1000 nM
	< 10 nM	C=CCn1c(=O)c2cnc(Nc3ccc(N4CCN(C)CC4)c(C)c3)nc2n1-c1ccc2c(n1)[C@@](O)(CC)CC2 (single isomer, unassigned) [Example 12B]	< 100 nM
	< 10 nM	C=CCn1c(=O)c2cnc(Nc3ccc(N4CCN(C)CC4)cc3)nc2n1-c1ccc2c(c1)[C@@](C)(O)CC2 (single isomer, unassigned) [Example 21A]	> 1000 nM
	< 10 nM	C=CCn1c(=O)c2cnc(Nc3ccc(N4CCN(C)CC4)cc3)nc2n1-c1ccc2c(n1)[C@](C)(O)CCC2 (single isomer, unassigned) [Example 25B]	100 to 1000 nM
10 to 100 nM		C=CCn1c(=O)c2cnc(Nc3ccc(N4CCN(C)CC4)cc3)nc2n1-c1cnc2c(c1)[C@](C)(O)CO2 (single isomer, unassigned) [Example 35B]	> 1000 nM
